Measured values from publication PMC6244159, “Structure and Function Studies of Asian Corn Borer Ostrinia furnacalis Pheromone Binding Protein2” (Scientific Reports, 2018).

Molecular target: T1, OfurPBP2 (Ostrinia furnacalis pheromone binding protein 2) (Ostrinia furnacalis, UniProt E7CCA0)
T1 construct: gene PBP2; full-length OfurPBP2, recombinant soluble (E. coli Origami 2), delipidated, pH 6.5
T1 sequence (E7CCA0 23-166): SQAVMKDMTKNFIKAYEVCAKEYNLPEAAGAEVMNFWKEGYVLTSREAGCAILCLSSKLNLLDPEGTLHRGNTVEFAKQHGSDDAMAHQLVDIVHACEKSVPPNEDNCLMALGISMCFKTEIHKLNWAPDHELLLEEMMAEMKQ
Assay: fluorescence titration of the NPN probe (emission at […] nm), single-site fit

c1ccc(Nc2cccc3ccccc23)cc1 [N-phenyl-1-naphthylamine]
Kd: 6.49 ± 1.01 µM
